For one assay, the system named is GABA-uptake. The assay is described as follows: In vitro GABA-uptake inhibition, essentially as described by Fjalland, 3H-GABA as substrate. In kind it is biochemical.
The subject of assay [1] is DBA/2 mice (convulsions induced by loud noise; Rotarod). The assay is described as follows: Rotarod test versus convulsions induced by loud noise in DBA/2 mice (ratio ED50 Rotarod/ED50 tonic convulsions). In kind it is in vivo, male DBA/2 mice. Particulars: i.p., Rotarod test 25 min after injection, then 14 kHz tone at 111 dB for 30 sec. The procedure: The convulsions induced by loud noise in the DBA/2 strain of mice is regarded as a reliable model for evaluating anti-epileptic drug effects, cf. E. N. Petersen et al.: Psychopharmacol. 83 (1984), 240, and A. G. Chapman et al.: Arzmeim.Forsch. 10 (1984), 1261. The Rotarod and Traction tests were used to evaluate the sedative properties of the test drugs.
Male DBA/2 mice (8±1 g) were used in all experiments. The animals were pretrained on the Rotarod (6 rpm; rod diameter 2.5 cm) for 1 min. The compounds tested were injected intra-peritoneally. Twenty-five min, later the animals underwent a 2 min. test on the Rotarod. The number of failures to stay on the rod was counted. An error rate higher than 10 was assigned the maximum score of 10. Immediately after the Rotarod test, the animals were tested in a Traction test, cf. Psychopharmacol. above. In this test, the animal was required to maintain grasp on a thin rod (diameter 2.5 mm) with the forepaws for five sec. and, within this period of time, to show a traction response (grasping onto the rod with one of the hindlegs). The performance on the test was based on the absence or presence of the traction response with the 5 sec. test period. Finally, after the Traction test, the animals were individually placed in a chamber in which they were exposed for 30 sec. to a 14 kHz sinus tone at 111 dB. During this period of time, the following behaviours were noted: "wild running", clonic convulsions and death.
The compounds tested were dissolved in distilled water or suspended in 5% chremophore. The injection volume was 0.2 ml/mouse.
In table 2, below, the ratio ED50 Rotarod/ED50 tonic convulsions is given for the compounds tested. NO-05-0340 is R-N-(4-(2-methylphenyl)-4-(3-methyl-2-thienyl)but-3-en-1-yl)nipecotic acid and NO-05-0356 is R-N-(4-(N-methylpyrrol-2-yl)-4-phenylbut-3-en-1-yl)nipecotic acid.
For orientation: In the rotarod test animals must keep their balance on a rotating rod.

The next assay concerns GABA uptake. Particulars: orally active; cited from earlier work.
Where [2] appears, read: 3H-GABA substrate, two separate experiments, 3-5 concentrations of test compound, read-out: IC50.
The mark [3] stands for this setting: R3 nipecotic acid, read-out: in vitro test value.

Counter-ions that a name gives are not always drawn. Like-named read-outs stand apart in the source and are kept apart here.

Method for GABA-uptake: GABA-uptake inhibition was measured essentially as described by Fjalland (Acta Pharmacol. et. Toxicol. (1978), 42, 73-76) using 25 mM of 3H-GABA as a substrate.

On to `Cc1ccsc1C(=CCCN1CCC[C@@H](C(=O)O)C1)c1cccc(Cl)c1` (mixture of isomers), for which the IC50 in the assay on GABA-uptake (setting [2]) came to 124 nM. Take `O=C(O)C1=CCCN(CCC=C(c2ccccc2)c2cccs2)C1` (mixture of isomers) [phenyl, thien-2-yl, guvacine, (E/Z), reference compound]: in the assay with GABA-uptake (setting [2]), the IC50 was determined as 217 nM.

On to `O=C(O)[C@@H]1CCCN(CCC=C(c2ccccc2)c2cccs2)C1` (mixture of isomers) [reference compound], for which the IC50 in the assay on GABA-uptake (setting [2]) worked out at 236 nM. Consider `O=C(O)C1CCCN(CCC=C(c2ccccc2)c2cccs2)C1` (racemic) [reference compound], for which the IC50 in the assay with GABA-uptake (setting [2]) and in the assay with GABA-uptake (setting [3]) was 470 nM each time.

With `Cc1ccc(C(=CCCN2CCC[C@@H](C(=O)O)C2)c2sccc2C)c(C)c1` [Example 10, R-N-(4-(2,4-dimethylphenyl)-4-(3-methyl-2-thienyl)but-3-en-1-yl)nipecotic acid hydrochloride], the IC50 in the assay on GABA-uptake (setting [2]) worked out at 190 nM.

As to `CCCn1cccc1C(=CCCN1CCC[C@@H](C(=O)O)C1)c1ccccc1C` [Example 14], the IC50 in the assay with GABA-uptake (setting [2]) came out at 85 nM. With `Cc1ccccc1C(=CCCN1CCC=C(C(=O)O)C1)c1sccc1C` [Example 15], the IC50 in the assay with GABA-uptake (setting [2]) worked out at 117 nM. With `Cc1cc(Cl)ccc1C(=CCCN1CCC[C@@H](C(=O)O)C1)c1sccc1C` [Example 16], the IC50 in the assay with GABA-uptake (setting [2]) turned out to be 89 nM. As to `COc1cccc(C(=CCCN2CCC[C@@H](C(=O)O)C2)c2sccc2C)c1` [Example 18], the IC50 in the assay on GABA-uptake (setting [2]) came out at 56 nM. As to `Cc1ccsc1C(=CCCN1CCC[C@@H](C(=O)O)C1)c1ccccc1F` [Example 24], the IC50 in the assay on GABA-uptake (setting [2]) came to 217 nM.

For the molecule `Cc1ccsc1C(=CCCN1CCC[C@@H](C(=O)O)C1)c1cccc(Cl)c1C` [Example 49], the IC50 with GABA-uptake (setting [2]) worked out at 104 nM. On the same count and under the same terms, in the case of `Cc1cc(Cl)ccc1C(=CCCN1CCC[C@@H](C(=O)O)C1)c1cccn1C` [Example 57] it was 148 nM; in that of `CCn1cccc1C(=CCCN1CCC[C@@H](C(=O)O)C1)c1ccccc1C` [Example 58], 49 nM. The same measure, in the same setting: the value for `CCn1cccc1C(=CCCN1CCC=C(C(=O)O)C1)c1ccccc1` [Example 59] was 162 nM.

Turning to `Cc1ccccc1C(=CCCN1CCC[C@@H](C(=O)O)C1)c1sccc1C` [NO-05-0340, R-N-(4-(2-Methylphenyl)-4-(3-methyl-2-thienyl)but-3-en-1-yl)nipecotic acid], the “ratio ED50 Rotarod/ED50 tonic convulsions” value in assay [1] is given as 8. In addition, the IC50 in the assay with GABA-uptake (setting [2]) and with GABA-uptake (setting [3]) was 74 nM throughout. Turning to `Cl.Cn1cccc1C(=CCCN1CCC[C@@H](C(=O)O)C1)c1ccccc1` [NO-05-0356, R-N-(4-(N-Methylpyrrol-2-yl)-4-phenylbut-3-en-1-yl)nipecotic acid hydrochloride], the “ratio ED50 Rotarod/ED50 tonic convulsions” value in assay [1] turned out to be 21. Moreover, the IC50 in the assay on GABA-uptake (setting [2]) was determined as 68 nM. For `Cn1cccc1C(=CCCN1CCC=C(C(=O)O)C1)c1ccccc1` [NO-05-0387, N-(4-(N-Methylpyrrol-2-yl)-4-phenylbut-3-en-1-yl)guvacine hydrochloride], the IC50 in the assay with GABA-uptake (setting [2]) was 126 nM. As to `O=C(O)C1CCCN(CCC=C(c2ccccc2)c2ccccc2)C1` (stereo not drawn) [SK&F 89976A, N-(4,4-diphenyl-3-butenyl)nipicotic acid, reference compound], the “ratio ED50 Rotarod/ED50 tonic convulsions” value in assay [1] came out at 5. Moreover, in the assay on GABA uptake, the “GABA uptake inhibition, oral activity” value is recorded as “orally active inhibitors of GABA uptake”. Consider `O=C(O)C1=CCCN(CCC=C(c2ccccc2)c2ccccc2)C1` [SK&F 100330A, N-(4,4-diphenyl-3-butenyl)guvacine], for which the “GABA uptake inhibition, oral activity” value in the assay with GABA uptake is on record as “orally active inhibitors of GABA uptake”. As to `O=C(O)CC1CCN(CCC=C(c2ccccc2)c2ccccc2)C1` (stereo not drawn) [SK&F 100561, N-(4,4-diphenyl-3-butenyl)-β-homoproline, reference compound], the “ratio ED50 Rotarod/ED50 tonic convulsions” value in assay [1] came to 7. Also, the “GABA uptake inhibition, oral activity” value with GABA uptake is on record as “orally active inhibitors of GABA uptake”. For the molecule `O=C(O)C1CCCN(CCC=C(c2ccccc2)c2cccs2)C1` (stereo not drawn) [SK&F 100604J, N-(4-sphenyl-4-(2-thienyl)-3-butenyl)nipecotic acid], the “GABA uptake inhibition, oral activity” value with GABA uptake is “orally active inhibitors of GABA uptake”.

The values above are taken from US4931450A, “Amino acid derivatives” (Novo Industri A/S, priority 1986, dated 1990).
